Source: patent US10065941B2, “Aminotriazine derivative and pharmaceutical composition comprising the same” (Shionogi & Co., Ltd., priority 2013, dated 2018)

target: human P2X3 receptor (Homo sapiens (Human), UniProt P56373); assay: Evaluation of human P2X3 receptor inhibitory activity (Test Example 1); type: cell-based; settings: C6BU-1 cell transfected with human P2X3 receptor gene, FLIPR 384
Summary of the method: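 FLIPR calcium read-out: signal taken as peak fluorescence after ATP addition divided by starting fluorescence, and IC50 calculated from it. Compound added 5 min before 150 nM ATP solution (pre-dispense stock) to Fluo-3-AM-loaded C6BU-1 cells stably transfected with human P2X3; HEPES buffer pH 7.5 with probenecid.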

Chain of human P2X3 receptor (P56373 whole entry): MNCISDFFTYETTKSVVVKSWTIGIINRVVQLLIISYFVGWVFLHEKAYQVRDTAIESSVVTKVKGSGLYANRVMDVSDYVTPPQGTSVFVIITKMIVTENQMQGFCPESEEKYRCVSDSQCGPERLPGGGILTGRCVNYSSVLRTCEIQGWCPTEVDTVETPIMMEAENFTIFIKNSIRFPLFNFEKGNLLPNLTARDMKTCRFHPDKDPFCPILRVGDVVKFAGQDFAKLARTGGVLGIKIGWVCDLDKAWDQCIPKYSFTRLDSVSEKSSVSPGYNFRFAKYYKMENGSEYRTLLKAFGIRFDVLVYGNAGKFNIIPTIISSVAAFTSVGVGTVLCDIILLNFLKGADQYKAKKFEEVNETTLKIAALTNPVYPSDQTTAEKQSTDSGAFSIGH

SMILES | IC50
CCc1ccc(Oc2ccc(/N=c3\[nH]c(=O)n(C[C@H](C)C(=O)O)c(=O)n3Cc3ccc(Cl)cc3)cc2)nc1 [Compound I-258] | 4 nM
CC(=O)c1ccc(Oc2ccc(/N=c3\[nH]c(=O)n(C[C@H](C)C(=O)O)c(=O)n3Cc3ccc(Cl)cc3)cc2)nc1 [Compound I-259] | 5 nM
CC(=O)c1ccc(Oc2ccc(/N=c3\[nH]c(=O)n(C[C@H](C)C(=O)O)c(=O)n3Cc3ccc(C)cc3)cc2)nc1 [Compound I-260] | 5 nM
Cc1ccc(Cn2c(=O)n(C[C@H](C)C(=O)O)c(=O)[nH]/c2=N\c2ccc(Oc3cccc(CF)n3)cc2)cc1 [Compound I-261] | 8 nM
Cc1ccc(Cn2c(=O)n(C[C@H](C)C(=O)O)c(=O)[nH]/c2=N\c2ccc(Oc3ccc(C(C)O)cn3)cc2)cc1 (stereo partly shown) [Compound I-262] | 7 nM
C[C@@H](Cn1c(=O)[nH]/c(=N\c2ccc(Oc3ccccn3)cc2)n(CC2CC3(CCC3)C2)c1=O)C(=O)O [Compound I-263] | 5 nM
C[C@@H](Cn1c(=O)[nH]/c(=N\c2ccc(Oc3ccc(F)cn3)cc2)n(CC2CC3(CCC3)C2)c1=O)C(=O)O [Compound I-264] | 5 nM
COC(=O)[C@@H](C)Cn1c(=O)[nH]/c(=N\c2ccc(Oc3cccc(CI)n3)cc2)n(Cc2ccc(C)cc2)c1=O [Compound I-265] | 10 nM
COC(=O)[C@@H](C)Cn1c(=O)[nH]/c(=N\c2ccc(Oc3cccc(CF)n3)cc2)n(Cc2ccc(C)cc2)c1=O [Compound I-266] | 8 nM
COC(=O)[C@@H](C)Cn1c(=O)[nH]/c(=N\c2ccc(Oc3ccc(C(C)=O)cn3)cc2)n(Cc2ccc(C)cc2)c1=O [Compound I-267] | 3 nM
COC(=O)[C@@H](C)Cn1c(=O)[nH]/c(=N\c2ccc(Oc3ccccn3)cc2)n(CC2CC3(CCC3)C2)c1=O [Compound I-268] | 3 nM
COC(=O)[C@@H](C)Cn1c(=O)[nH]/c(=N\c2ccc(Oc3ccc(F)cn3)cc2)n(CC2CC3(CCC3)C2)c1=O [Compound I-269] | 4 nM
CCc1ccc(Oc2ccc(/N=c3\[nH]c(=O)n(C[C@H](C)C(=O)OC)c(=O)n3Cc3ccc(C)cc3)cc2)nc1 [Compound I-270] | 4 nM
COC(=O)[C@@H](C)Cn1c(=O)[nH]/c(=N\c2ccc(Oc3ccccn3)cc2)n(Cc2ccc(Cl)s2)c1=O [Compound I-271] | 10 nM
COC(=O)[C@@H](C)Cn1c(=O)[nH]/c(=N\c2ccc(Oc3ccc(F)cn3)cc2)n(Cc2ccc(Cl)s2)c1=O [Compound I-272] | 8 nM
C[C@@H](Cn1c(=O)[nH]/c(=N\c2ccc(Oc3ccccn3)cc2)n(Cc2ccc(Cl)s2)c1=O)C(=O)O [Compound I-273] | 5 nM
C[C@@H](Cn1c(=O)[nH]/c(=N\c2ccc(Oc3ccc(F)cn3)cc2)n(Cc2ccc(Cl)s2)c1=O)C(=O)O [Compound I-274] | 5 nM
CCc1ccc(Oc2ccc(/N=c3\[nH]c(=O)n(C[C@H](C)C(=O)O)c(=O)n3Cc3ccc(C)cc3)cc2)nc1 [Compound I-275] | 4 nM
Cc1cc(/N=c2\[nH]c(=O)n(C[C@H](C)C(=O)O)c(=O)n2Cc2ccc(Cl)s2)ccc1Oc1ncccc1F [Compound I-276] | 19 nM
CC(C)(C)n1c(=O)[nH]/c(=N\c2ccc(Oc3ccc(-c4cccc(C(=O)O)c4)cn3)cc2)n(Cc2ccc(Cl)cc2)c1=O [Compound R-001] | 7 nM

SMILES | IC50
COC(=O)c1cccc(-c2ccc(Oc3ccc(/N=c4\[nH]c(=O)[nH]c(=O)n4Cc4ccc(Cl)cc4)cc3)nc2)c1 [Compound R-002] | 363 nM
O=C(O)c1cccc(-c2ccc(Oc3ccc(/N=c4\[nH]c(=O)[nH]c(=O)n4Cc4ccc(Cl)cc4)cc3)nc2)c1 [Compound R-003] | 4 nM
COC(=O)c1ccc(NC(=O)c2cccc(Oc3ccc(/N=c4\[nH]c(=O)n(C)c(=O)n4C[C@H]4CC[C@H](C)CC4)cc3)n2)cc1 [Compound R-004] | 123 nM
CCn1c(=O)[nH]/c(=N\c2ccc(-c3ccc(C#N)cn3)cc2)n(Cc2ccc(Cl)cc2)c1=O [Compound R-005] | 608 nM
Cn1c(=O)[nH]/c(=N\c2ccc(Oc3cccc(C(=O)Nc4ccc(C(=O)O)cc4)n3)cc2)n(C[C@H]2CC[C@H](C)CC2)c1=O [Compound R-006] | 4 nM
CCn1c(=O)nc(Nc2ccc3nc(C(C)C)oc3c2)n(Cc2ccc(Cl)cc2)c1=O [Compound R-007] | 301 nM
COc1nccc(Oc2ccc(/N=c3\[nH]c(=O)n([C@@H](C)[C@@H](C)C(=O)O)c(=O)n3Cc3ccc(Cl)cc3)cc2)n1 [Compound R-010] | 10 nM
CC(C)n1c(=O)[nH]/c(=N\c2ccc(Oc3cccc(C#N)n3)c(Cl)c2)n(Cc2ccc(Cl)cc2)c1=O [Compound R-011] | 49 nM
CC(C)n1c(=O)[nH]/c(=N\c2ccc(Oc3cccc(C(=O)O)n3)c(Cl)c2)n(Cc2ccc(Cl)cc2)c1=O [Compound R-012] | 5 nM
COC(=O)[C@@H](C)Cn1c(=O)[nH]/c(=N\c2ccc(Oc3cnc(Cl)cn3)cc2)n(Cc2ccc(Cl)cc2)c1=O [Compound R-013] | 6 nM
C[C@@H](Cn1c(=O)[nH]/c(=N\c2ccc(Oc3cnc(Cl)cn3)cc2)n(Cc2ccc(Cl)cc2)c1=O)C(=O)O [Compound R-014] | 5 nM
CCOC(=O)c1cnc(Oc2ccc(/N=c3\[nH]c(=O)n(CC)c(=O)n3Cc3ccc(Cl)cc3)cc2)c(Cl)c1 [Compound R-015, 1-(4-chlorobenzyl)-6-[4-(3-chloro-5-ethoxycarbonyl-2-pyridyloxy)phenylimino]-3-ethyl-1,3,5-triazinane-2,4-dione] | 104 nM
CCn1c(=O)[nH]/c(=N\c2ccc(Oc3ncc(C(=O)O)cc3Cl)cc2)n(Cc2ccc(Cl)cc2)c1=O [Compound R-016, 1-(4-chlorobenzyl)-6-[4-(3-chloro-5-hydroxycarbonyl-2-pyridyloxy)phenylimino]-3-ethyl-1,3,5-triazinane-2,4-dione] | 6 nM
COC(=O)[C@@H](C)Cn1c(=O)[nH]/c(=N\c2ccc(Oc3cnccn3)cc2)n(Cc2ccc(Cl)cc2)c1=O [Compound R-017] | 6 nM
C[C@@H](Cn1c(=O)[nH]/c(=N\c2ccc(Oc3cnccn3)cc2)n(Cc2ccc(Cl)cc2)c1=O)C(=O)O [Compound R-019] | 6 nM
CC(C)(Cn1c(=O)[nH]/c(=N\c2ccc(Oc3cnccn3)cc2)n(Cc2ccc(Cl)cc2)c1=O)C(=O)O [Compound R-020] | 13 nM
CC(C)Oc1ccc(/N=c2\[nH]c(=O)n([C@H]3C[C@H](C(=O)O)C3)c(=O)n2Cc2ccc(Cl)cc2)cc1Cl [Compound R-021] | 15 nM
CC(C)Oc1ccc(/N=c2\[nH]c(=O)n([C@H]3C[C@@H](C(=O)O)C3)c(=O)n2Cc2ccc(Cl)cc2)cc1Cl [Compound R-022] | 12 nM
CCc1oc2ccc(/N=c3\[nH]c(=O)n([C@H]4C[C@H](C(=O)O)C4)c(=O)n3Cc3ccc(Cl)cc3)cc2c1C [Compound R-023] | 21 nM
CCc1oc2ccc(/N=c3\[nH]c(=O)n([C@H]4C[C@@H](C(=O)O)C4)c(=O)n3Cc3ccc(Cl)cc3)cc2c1C [Compound R-024] | 18 nM

SMILES | IC50
COC(=O)C(C)(C)Cn1c(=O)[nH]/c(=N\c2ccc(Oc3cnc(Cl)cn3)cc2)n(Cc2ccc(Cl)cc2)c1=O [Compound R-025] | 5 nM
COC(=O)C(C)Cn1c(=O)[nH]/c(=N\c2ccc(Oc3ccc(OC(F)F)cn3)cc2)n(Cc2ccc(Cl)cc2)c1=O (stereo not shown) [Compound R-026] | 8 nM
CC(C)(Cn1c(=O)[nH]/c(=N\c2ccc(Oc3cnc(Cl)cn3)cc2)n(Cc2ccc(Cl)cc2)c1=O)C(=O)O [Compound R-027] | 6 nM
COC(=O)[C@@H](C)Cn1c(=O)[nH]/c(=N\c2ccc(Oc3ccc(C(F)(F)F)nn3)cc2)n(Cc2ccc(Cl)cc2)c1=O [Compound R-028] | 7 nM
COC(=O)C(C)(C)Cn1c(=O)[nH]/c(=N\c2ccc(Oc3ccc(C(F)(F)F)nn3)cc2)n(Cc2ccc(Cl)cc2)c1=O [Compound R-029] | 7 nM
C[C@@H](Cn1c(=O)[nH]/c(=N\c2ccc(Oc3ccc(C(F)(F)F)nn3)cc2)n(Cc2ccc(Cl)cc2)c1=O)C(=O)O [Compound R-030] | 8 nM
CC(C)(Cn1c(=O)[nH]/c(=N\c2ccc(Oc3ccc(C(F)(F)F)nn3)cc2)n(Cc2ccc(Cl)cc2)c1=O)C(=O)O [Compound R-031] | 12 nM
COc1cc(Oc2ccc(/N=c3\[nH]c(=O)n(C[C@H](C)C(=O)O)c(=O)n3Cc3ccc(Cl)cc3)cc2)ccn1 [Compound R-032] | 4 nM
COC(=O)[C@@H](C)Cn1c(=O)[nH]/c(=N\c2ccc(Oc3cccnn3)c(F)c2)n(Cc2ccc(Cl)cc2)c1=O [Compound R-033] | 6 nM
COC(=O)C(C)(C)Cn1c(=O)[nH]/c(=N\c2ccc(Oc3cccnn3)c(F)c2)n(Cc2ccc(Cl)cc2)c1=O [Compound R-034] | 5 nM
COC(=O)[C@@H](C)Cn1c(=O)[nH]/c(=N\c2ccc(Oc3cnc(C(F)(F)F)cn3)cc2)n(Cc2ccc(Cl)cc2)c1=O [Compound R-035] | 8 nM
COC(=O)C(C)(C)Cn1c(=O)[nH]/c(=N\c2ccc(Oc3cnc(C(F)(F)F)cn3)cc2)n(Cc2ccc(Cl)cc2)c1=O [Compound R-036] | 11 nM
C[C@@H](Cn1c(=O)[nH]/c(=N\c2ccc(Oc3cccnn3)c(F)c2)n(Cc2ccc(Cl)cc2)c1=O)C(=O)O [Compound R-037] | 7 nM
CC(C)(Cn1c(=O)[nH]/c(=N\c2ccc(Oc3cccnn3)c(F)c2)n(Cc2ccc(Cl)cc2)c1=O)C(=O)O [Compound R-038] | 7 nM
C[C@@H](Cn1c(=O)[nH]/c(=N\c2ccc(Oc3cnc(C(F)(F)F)cn3)cc2)n(Cc2ccc(Cl)cc2)c1=O)C(=O)O [Compound R-039] | 6 nM
COC(=O)[C@@H](C)Cn1c(=O)[nH]/c(=N\c2ccc(Oc3cc(F)nc(F)c3)cc2)n(Cc2ccc(Cl)cc2)c1=O [Compound R-040] | 7 nM
COC(=O)C(C)(C)Cn1c(=O)[nH]/c(=N\c2ccc(Oc3cc(F)nc(F)c3)cc2)n(Cc2ccc(Cl)cc2)c1=O [Compound R-041] | 11 nM
COC(=O)[C@@H](C)Cn1c(=O)[nH]/c(=N\c2ccc(Oc3ccnc(C)n3)cc2)n(Cc2ccc(Cl)cc2)c1=O [Compound R-042] | 5 nM
